Test results published in patent US10858339B2, “Aryl cyclopropyl-amino-isoquinolinyl amide compounds” (priority 2017, dated 2020).
Where a name gives a salt, the structure may show the parent alone.

Tests used:
[1] = target: Rho Kinase; test: ROCK kinase inhibition assay (Rho Kinase Activity, isoform not given); assay type: biochemical; settings: Table 15, mostly given as ranges
Experimental: All compounds were initially prepared as 10 mM stocks in anhydrous dimethylsulfoxide (DMSO). A 20 μl aliquot of the 10 mM solutions was transferred to individual wells in column 1 of a 96-well polypropylene microtiter plate (Corning #3363) and diluted with DMSO to give a final compound concentration of 4 mM. Test compounds were then serially diluted 1:5 in DMSO for an 11-point concentration response and further diluted in the assay buffer bringing all compound concentrations to a final range of 100 μM to […] in 2.5% DMSO. The assay was performed in white 96-well, flat-bottom, half-area, non-binding assay plate (Corning #3642) in assay buffer consisting of 20 mM HEPES (pH 7.5), 10 mM MgCl2*6H2O, 100 μM sodium orthovanadate, 0.05% CHAPS and 0.1% bovine serum albumin. A 10 μL aliquot of compound from each well of the intermediate dilution plate and 20 μL of a 2× substrate/enzyme solution containing acceptor substrate (800 nM RSK2 peptide […] (SEQ ID NO: 1)), ROCK2 enzyme (10 nM), or ROCK1 enzyme, and 1,4-Dithiothreitol (DTT, 2 uM) were added to all wells. The reaction was initiated by the addition of 10 μL of 4× stock solution ATP (2 μM). Reactions were thoroughly mixed manually, covered and allowed to incubate at room temperature for 75 min. Protein kinase activity was quantitated using Promega's KINASE-GLO™ luminescent Kinase Assay Kit according to the manufacturer's directions. ATP concentrations remaining in Test wells following the termination of the enzymatic reaction were compared against control wells containing equivalent amounts of DMSO containing no inhibitor (CTRL). […] Percent of Control (POC) values were determined for each concentration of compound tested according to the equation: POC=((Test well value−BKG)/(CTRL−BKG))*100
IC50 values were converted to K; […]

[2] = target: JAK2 (Homo sapiens, UniProt O60674); test: JAK kinase assay, JAK2 enzyme; assay type: biochemical; settings: for Ki: Table 15, in brackets in the activity cell, read-out: JAK2 activity;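 on all read-outs here: JAK2 kinase reaction run 75 min at room temperature, leftover ATP read by Kinase-Glo luminescence, 11-point dilution series in 2.5% DMSO, percent of inhibitor-free DMSO control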
Chain of JAK2 (O60674 whole entry, species assumed): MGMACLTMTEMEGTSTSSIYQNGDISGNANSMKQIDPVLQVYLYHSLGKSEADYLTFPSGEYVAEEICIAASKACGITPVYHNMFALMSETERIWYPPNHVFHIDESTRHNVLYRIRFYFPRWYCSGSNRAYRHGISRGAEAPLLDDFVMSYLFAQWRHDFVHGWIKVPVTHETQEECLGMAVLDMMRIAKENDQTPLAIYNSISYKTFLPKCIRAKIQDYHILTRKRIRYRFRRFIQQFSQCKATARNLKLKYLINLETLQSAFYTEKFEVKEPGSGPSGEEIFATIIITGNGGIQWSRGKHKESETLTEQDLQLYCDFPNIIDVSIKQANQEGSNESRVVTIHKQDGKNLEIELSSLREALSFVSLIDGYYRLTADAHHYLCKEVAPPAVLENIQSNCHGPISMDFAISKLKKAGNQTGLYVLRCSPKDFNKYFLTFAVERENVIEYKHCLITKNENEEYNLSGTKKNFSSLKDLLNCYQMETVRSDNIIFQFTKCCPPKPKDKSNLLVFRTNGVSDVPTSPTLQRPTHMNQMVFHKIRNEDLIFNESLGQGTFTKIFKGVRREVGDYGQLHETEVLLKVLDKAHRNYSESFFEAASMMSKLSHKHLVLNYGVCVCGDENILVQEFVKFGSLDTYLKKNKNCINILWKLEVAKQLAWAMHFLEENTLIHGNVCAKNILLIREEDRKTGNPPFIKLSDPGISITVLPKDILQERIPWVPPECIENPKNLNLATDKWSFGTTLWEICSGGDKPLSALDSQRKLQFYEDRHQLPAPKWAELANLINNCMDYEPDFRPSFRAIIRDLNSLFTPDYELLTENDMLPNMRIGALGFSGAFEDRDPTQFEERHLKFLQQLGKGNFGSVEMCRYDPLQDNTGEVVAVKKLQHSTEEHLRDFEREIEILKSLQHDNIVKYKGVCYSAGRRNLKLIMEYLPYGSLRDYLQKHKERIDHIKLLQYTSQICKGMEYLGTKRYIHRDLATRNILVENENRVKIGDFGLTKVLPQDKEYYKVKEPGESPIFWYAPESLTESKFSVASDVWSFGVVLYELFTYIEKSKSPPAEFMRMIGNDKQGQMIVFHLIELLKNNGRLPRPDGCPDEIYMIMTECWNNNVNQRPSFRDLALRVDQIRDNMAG

Row | Ki [1] [nM] | Ki [2] [nM] | JAK2 activity [2] | SMILES
1 | 3.5 to 4 | 15 | – | O=C(NCc1ccccn1)c1ccc(C2CC2C(=O)Nc2ccc3cnccc3c2)c(F)c1 (stereo not shown) [Example E194]
2 | 3 to 5 | – | – | O=C(Nc1ccc2cnccc2c1)[C@@H]1C[C@H]1c1ccc(S(=O)(=O)NC[C@@H]2CCCNC2)cc1 [Example E248F, trans-N-(isoquinolin-6-yl)-2-(4-(N—(((R)-piperidin-3-yl)methyl)sulfamoyl)phenyl)-cyclopropane-1-carboxamide dihydrochloride]
3 | 250 to 800 | – | – | O=C(Nc1ccc2cnccc2c1)[C@@H]1C[C@H]1c1ccc(CNCc2cccnc2)cc1 (relative stereo) [Example E160, trans-N-(isoquinolin-6-yl)-2-(4-(((pyridin-3-ylmethyl)amino)methyl)phenyl)cyclopropane-1-carboxamide]
4 | 30 to 800 | – | – | O=C(NCc1cccc(F)c1)OCc1ccc([C@@H]2C[C@H]2C(=O)Nc2ccc3cnccc3c2)cc1 (relative stereo) [Example E142, trans-4-(2-(isoquinolin-6-ylcarbamoyl)cyclopropyl)benzyl (3-fluorobenzyl)carbamate]
5 | 8000 to 15000 | – | – | C[C@@H]1OC(c2ccc(C3CC(=O)N(c4ccc5cnccc5c4)C3)cc2)O[C@H]1C (stereo partly drawn) [Example E223, 4-(4-((4S,5S)-4,5-dimethyl-1,3-dioxolan-2-yl)phenyl)-1-(isoquinolin-6-yl)pyrrolidin-2-one]
6 | 100 to 400 | 400 to 700 | – | O=C(O)c1ccc([C@@H]2C[C@H]2C(=O)Nc2ccc3cnccc3c2)cc1 [Example E116, 4-((1R,2R)-2-(isoquinolin-6-ylcarbamoyl)cyclopropyl)benzoic acid]
7 | 150 to 400 | 500 to 800 | – | O=C(Nc1ccc2cnccc2c1)[C@@H]1C[C@H]1c1ccc(I)cc1 (relative stereo) [Example E251, rel-(1R,2R)-2-(4-iodophenyl)-N-(isoquinolin-6-yl)cyclopropane-1-carboxamide]
8 | 1350 to 2200 | – | – | O=C1CC(c2ccc(CNCc3cccnc3)cc2)CN1c1ccc2cnccc2c1 (stereo not shown) [Example E225, 1-(isoquinolin-6-yl)-4-(4-(((pyridin-3-ylmethyl)amino)methyl)phenyl)pyrrolidin-2-one]
9 | 0.4 to 1 | – | – | CC(C)(C)OC(=O)N1CCC(CNC(=O)c2ccc(C3CC3C(=O)Nc3ccc4cnccc4c3)cc2F)CC1 (stereo not shown) [Example E195.2]
10 | 14000 to 25000 | – | – | CC(C)(C)OC(=O)c1ccc(C2CC(=O)N(c3ccc4cnccc4c3)C2)cc1 (stereo not shown) [Example E230, tert-butyl 4-(1-(isoquinolin-6-yl)-5-oxopyrrolidin-3-yl)benzoate]
11 | 30 to 50 | – | – | O=C(Nc1ccc2cnccc2c1)[C@@H]1C[C@H]1c1ccc(S(=O)(=O)N2CCNCC2)cc1 (racemic) [Example E248H, trans)-N-(isoquinolin-6-yl)-2-(4-(piperazin-1-ylsulfonyl)phenyl) cyclopropane-1-carboxamide dihydrochloride]
12 | 200 to 600 | – | – | CC(C)(C)OC(=O)N1CCC(CNCc2ccc(C3CC3C(=O)Nc3ccc4cnccc4c3)cc2)CC1 (stereo not shown) [Example E162.1]
13 | 1300 to 4000 | – | – | CC(C)(C)OC(=O)N1CCC(CNCc2ccc(C3CC(=O)N(c4ccc5cnccc5c4)C3)cc2)CC1 (stereo not shown) [Example E227.1]
14 | 125 to 300 | – | – | O=C(Nc1ccc2cnccc2c1)C1CC1c1ccc(CNCC2CCNCC2)cc1 (stereo not shown) [Example E162.2]
15 | 650 to 1250 | – | – | O=C(OCc1ccccc1)c1cccc([C@@H]2C[C@H]2C(=O)Nc2ccc3cnccc3c2)c1 (relative stereo) [Example E170, trans-benzyl 3-(2-(isoquinolin-6-ylcarbamoyl)cyclopropyl)benzoate]
16 | 6500 to 16000 | – | – | O=C(NCc1cccnc1)c1ccc(C2CC(=O)N(c3ccc4cnccc4c3)C2)cc1 (stereo not shown) [Example E232, 4-(1-(isoquinolin-6-yl)-5-oxopyrrolidin-3-yl)-N-(pyridin-3-ylmethyl)benzamide]
17 | 1000 to 1250 | – | – | O=C(NCC1CCNCC1)c1ccc(C2CC(=O)N(c3ccc4cnccc4c3)C2)cc1 (stereo not shown) [Example E234.2]
18 | 2600 to 6750 | – | – | O=Cc1ccc(C2CC(=O)N(c3ccc4cnccc4c3)C2)cc1 (stereo not shown) [Example E224, 4-(1-(isoquinolin-6-yl)-5-oxopyrrolidin-3-yl)benzaldehyde]
19 | 1900 to 9300 | – | – | O=C1CC(c2ccc(CNCc3ccccn3)cc2)CN1c1ccc2cnccc2c1 (stereo not shown) [Example E226]
20 | 34000 to 68000 | – | – | O=C(O)c1ccc(C2CC(=O)N(c3ccc4cnccc4c3)C2)cc1 (stereo not shown) [Example E231, 4-(1-(isoquinolin-6-yl)-5-oxopyrrolidin-3-yl)benzoic acid]
21 | 4 to 7 | – | – | O=C(NCc1ccc2ccncc2c1)c1ccc(C2CC2C(=O)Nc2ccc3cnccc3c2)cc1F (stereo not shown) [Example E195.1]
22 | 60 to 300 | – | – | O=C(Nc1ccc2cnccc2c1)[C@@H]1C[C@H]1c1ccc(OCc2ccccc2)cc1 (relative stereo) [Example E210, trans-2-(4-(benzyloxy)phenyl)-N-(isoquinolin-6-yl)cyclopropane-1-carboxamide]
23 | 70 to 100 | – | – | O=C(NCc1ccc(Cl)cc1)c1ccc(C2CC2C(=O)Nc2ccc3cnccc3c2)c(F)c1 (stereo not shown) [Example E195]
24 | 300 to 600 | – | – | O=C1CC(c2ccc(CNCC3CCNCC3)cc2)CN1c1ccc2cnccc2c1 (stereo not shown) [Example E227.2]
25 | 9300 | – | – | CC(C)(C)OC(=O)c1ccc(C2CC(=O)N(c3ccc4cnccc4c3)C2)cc1F (stereo not shown) [Example E230.1]
26 | 0.15 to 0.3 | – | – | O=C(NCc1ccncc1)c1cccc(C2CC2C(=O)Nc2ccc3cnccc3c2)c1 (stereo not shown) [Example E174]

More lines, now with the values behind:

Row | SMILES | Ki [1] [nM] | Ki [2] [nM] | JAK2 activity [2]
27 | O=C(OCc1ccccc1)c1ccc(C2CC2C(=O)Nc2ccc3c(O)nccc3c2)cc1 (stereo not shown) [Example E100.1] | 25 | – | inactive
28 | O=C(Nc1ccc2cnccc2c1)c1ccc(C2CC2C(=O)Nc2ccc3cnccc3c2)cc1 (stereo not shown) [Example E18] | 0.8 to 8 | 1000 to 1200 | –
29 | O=C(Nc1ccc(Oc2ccccc2)cc1)c1ccc(C2CC2C(=O)Nc2ccc3cnccc3c2)cc1 (stereo not shown) [Example E39.1] | 75 to 110 | – | –
30 | O=C(Nc1ccc2cnccc2c1)[C@@H]1C[C@H]1c1ccc(S(=O)(=O)Nc2ccccc2)cc1 (relative stereo) [Example E247A, trans-N-(isoquinolin-6-yl)-2-(4-(N-phenylsulfamoyl)phenyl) cyclopropane-1-carboxamide] | 70 to 350 | – | –
31 | O=C(NCc1ccccn1)c1ccc(C2CC2C(=O)Nc2ccc3c(O)nccc3c2)cc1 (stereo not shown) [Example E31] | 5 to 7 | 375 to 570 | –
32 | O=C(NCc1cccnc1)c1ccc(C2CC2C(=O)Nc2ccc3cncc(F)c3c2)cc1 (stereo not shown) [Example E33] | 5 to 8 | 75 to 110 | –
33 | O=C(NCc1ccccn1)c1ccc([C@H]2C[C@@H]2C(=O)Nc2ccc3cnccc3c2)cc1 [Example E55] | 12000 to 52000 | – | inactive
34 | CC(C)(C)OC(=O)N1CCC(CNC(=O)c2ccc(C3CC3C(=O)Nc3ccc4cnccc4c3)cc2)C1 (stereo not shown) [Example E20.1] | 0.5 to 2 | 700 to 2000 | –
35 | O=C(NCc1ccncc1)c1ccc(C2CC2C(=O)Nc2ccc3cnccc3c2)cc1 (stereo not shown) [Example E10] | 1 to 7 | – | –
36 | O=C(NCc1ccc(OC(F)(F)F)cc1)c1ccc(C2CC2C(=O)Nc2ccc3cnccc3c2)cc1 (stereo not shown) [Example E15.1] | 65 to 110 | – | –
37 | O=C1CC(c2ccccc2)CN1c1ccc2cnccc2c1 (stereo not shown) | 650 to 1350 | – | –
38 | Cc1cncc2ccc(NC(=O)C3CC3c3ccc(C(=O)NCc4cccnc4)cc3)cc12 (stereo not shown) [Example E34] | 7 to 14 | 30 to 45 | –
39 | O=C(Nc1ccc2cnccc2c1)C1CC1c1ccccc1 (stereo not shown) | 5 to 13 | – | –
40 | O=C(NCc1cccnc1)c1ccc(C2CC2C(=O)Nc2cc3ccncc3cc2Br)cc1 (stereo not shown) [Example E32] | 2.5 to 4.5 | 400 to 1300 | –
41 | COc1ccc(CNC(=O)c2ccc(C3CC3C(=O)Nc3ccc4cnccc4c3)cc2)cc1 (stereo not shown) [Example E15] | 1 to 5 | – | –
42 | O=C(NCc1ccccc1)c1ccc([C@@H]2C[C@H]2C(=O)Nc2ccc3cnccc3c2F)cc1 [Example E115.1] | 0.1 to 1 | – | –
43 | O=C(NCC1CCCNC1)c1ccc(C2CC2C(=O)Nc2ccc3cnccc3c2)cc1 (stereo not shown) [Example E30.2] | 1 to 8 | – | –
44 | O=C(NCc1cccs1)c1ccc(C2CC2C(=O)Nc2ccc3cnccc3c2)cc1 (stereo not shown) [Example E17] | 2 to 4 | – | –
45 | Cc1nccc2cc(NC(=O)C3CC3c3ccc(C(=O)NCc4cccnc4)cc3)ccc12 (stereo not shown) [Example E36] | 75 to 200 | – | –
46 | CC(C)(C)OC(=O)N1CCCC(CNC(=O)c2ccc(C3CC3C(=O)Nc3ccc4cnccc4c3)cc2)C1 (stereo not shown) [Example E30.1] | 10 to 37 | – | –
47 | O=C(Nc1ccc2cncc(Cl)c2c1)[C@@H]1C[C@H]1c1ccc(S(=O)(=O)NC[C@H]2CCCNC2)cc1 [E250E*] | 9 to 11 | – | –
48 | O=C(Nc1ccc2cnccc2c1)[C@@H]1C[C@H]1c1ccc(S(=O)(=O)NCC2CCNCC2)cc1 (relative stereo) [Example E248D, trans-N-(isoquinolin-6-yl)-2-(4-(N-(piperidin-4-ylmethyl)sulfamoyl)phenyl) cyclopropane-1-carboxamide dihydrochloride] | 5 to 9 | – | –
49 | O=C(NCc1ccc(Cl)cc1)c1ccc(C2CC2C(=O)Nc2ccc3cnccc3c2)cc1 (stereo not shown) [Example E14] | 3 to 43 | – | –
50 | O=C(Nc1ccc2cnccc2c1)C1CC1c1ccc(COCc2ccccc2)cc1 (stereo not shown) | 350 to 600 | – | –
